Patent US20210171598A1, “PEPTIDE HORMONE WITH ONE OR MORE O-GLYCANS” (priority 2017, published 2021)
Groups on a side chain read outwards from the residue. No end group written: not given here.

T1: insulin-degrading enzyme (IDE) (Homo sapiens, UniProt P14735)
T1 construct: purchased R&D Systems
T1 sequence (P14735 1-1019): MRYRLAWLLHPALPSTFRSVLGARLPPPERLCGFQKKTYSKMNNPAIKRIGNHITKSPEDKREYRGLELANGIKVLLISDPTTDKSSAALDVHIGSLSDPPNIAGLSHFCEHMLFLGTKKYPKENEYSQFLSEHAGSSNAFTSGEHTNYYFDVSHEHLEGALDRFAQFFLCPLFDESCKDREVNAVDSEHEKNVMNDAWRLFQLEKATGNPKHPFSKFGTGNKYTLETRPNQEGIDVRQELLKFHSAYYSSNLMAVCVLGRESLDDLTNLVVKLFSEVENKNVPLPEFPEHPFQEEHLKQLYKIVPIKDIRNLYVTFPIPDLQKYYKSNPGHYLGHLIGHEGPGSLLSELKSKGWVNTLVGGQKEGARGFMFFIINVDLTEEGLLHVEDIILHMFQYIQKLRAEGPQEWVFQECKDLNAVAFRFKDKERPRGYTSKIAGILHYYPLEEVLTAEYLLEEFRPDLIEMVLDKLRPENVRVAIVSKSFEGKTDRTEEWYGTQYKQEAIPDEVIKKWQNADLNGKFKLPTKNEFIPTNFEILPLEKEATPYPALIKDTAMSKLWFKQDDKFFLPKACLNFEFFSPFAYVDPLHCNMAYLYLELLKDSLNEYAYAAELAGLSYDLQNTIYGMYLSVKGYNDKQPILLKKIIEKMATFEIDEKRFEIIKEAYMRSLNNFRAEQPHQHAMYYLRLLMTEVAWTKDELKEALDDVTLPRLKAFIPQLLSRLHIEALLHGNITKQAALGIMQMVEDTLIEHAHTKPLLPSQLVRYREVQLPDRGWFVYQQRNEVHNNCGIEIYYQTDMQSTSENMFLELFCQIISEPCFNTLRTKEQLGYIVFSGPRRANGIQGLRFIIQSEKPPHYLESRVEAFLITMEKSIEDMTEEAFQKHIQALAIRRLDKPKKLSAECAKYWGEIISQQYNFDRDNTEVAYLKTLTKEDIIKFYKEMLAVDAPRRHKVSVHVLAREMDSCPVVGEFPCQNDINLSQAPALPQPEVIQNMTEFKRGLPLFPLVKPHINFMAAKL

T2: VIP/PACAP receptor VPAC1 (UniProt P32241 31-457)
T2 sequence (looked up): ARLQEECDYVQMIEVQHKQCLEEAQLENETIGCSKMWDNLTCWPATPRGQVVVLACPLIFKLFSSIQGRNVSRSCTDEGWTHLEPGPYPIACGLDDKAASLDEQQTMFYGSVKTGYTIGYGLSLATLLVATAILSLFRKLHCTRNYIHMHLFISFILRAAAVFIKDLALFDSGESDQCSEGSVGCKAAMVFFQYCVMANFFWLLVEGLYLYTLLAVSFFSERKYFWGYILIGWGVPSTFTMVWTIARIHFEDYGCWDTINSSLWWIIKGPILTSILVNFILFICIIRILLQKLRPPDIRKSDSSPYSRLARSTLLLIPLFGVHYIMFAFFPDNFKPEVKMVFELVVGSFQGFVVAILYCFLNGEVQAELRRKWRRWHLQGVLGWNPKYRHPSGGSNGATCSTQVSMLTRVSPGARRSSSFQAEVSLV

T3: VIP/PACAP receptor VPAC2 (UniProt P41587 24-438)
T3 sequence (looked up): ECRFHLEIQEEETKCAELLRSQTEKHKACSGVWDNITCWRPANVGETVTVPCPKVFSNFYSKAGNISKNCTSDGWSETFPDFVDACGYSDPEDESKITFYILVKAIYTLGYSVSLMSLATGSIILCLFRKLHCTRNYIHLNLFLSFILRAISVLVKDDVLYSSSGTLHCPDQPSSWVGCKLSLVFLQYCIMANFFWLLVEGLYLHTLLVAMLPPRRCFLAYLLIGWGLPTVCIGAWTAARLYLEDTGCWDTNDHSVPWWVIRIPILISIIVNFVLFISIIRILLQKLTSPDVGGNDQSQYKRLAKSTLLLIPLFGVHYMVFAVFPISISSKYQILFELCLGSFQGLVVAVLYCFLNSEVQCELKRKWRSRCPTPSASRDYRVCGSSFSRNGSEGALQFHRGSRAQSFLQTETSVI


Key:
male Sprague Dawley rats = test: Acute cardiovascular and renal actions of i.v. infusion in anesthetized rats; format: in vivo; conditions: rat; for change in mean arterial pressure (MAP) over the infusion period / change in plasma cGMP over the infusion period: 600 pmol/kg/min i.v., 60 minutes infusion; for MAP in the 30 minutes clearance period: after 60 min infusion
Description: The protocol is outlined in FIG. 9A.
Rats were then subjected to vessel and bladder cannulation for peptide infusion, BP measurement, blood sampling and urine collection. A polyethylene (PE)-5G tube catheter was placed into the jugular vein for inulin, peptide intravenous infusion. The carotid artery was cannulated with a PE-50 tube catheter for BP measurement (Sonometrics, London, Ontario, Canada) and blood sampling. The bladder was accessed and cannulated with a PE-50 tube catheter for passive urine collection. After completion of the above procedural set up, a 45 min equilibration period was performed that included continuous IV inulin and saline infusion. After the 45 min equilibration period, baseline (Time==Q min) parameters were recorded and one blood sampling (0.7 ml) was performed. The inulin and saline infusion was replaced by a continuous intravenously (i.v.) infusion of equimolar ANP-Ser19/ST or ANP-Ser25/ST for 60 min. The infusion rate was weight adjusted and equals weight*0.7/6000 ml/min. After 60 min infusion (Time=60 min), another blood sampling (0.7 ml) was conducted. […] Urine was collected at the end of the infusion (Time=60 min) and the study (Time=90 min). Urinary sodium was measured with pHOx Ultra (Nova Biomedical, Waltham, Mass.). Urine flow (UV) and urinary sodium excretion (UNaV) were calculated as urine volume or sodium clearance per min, Inulin concentrations were measured with enthrone method and inulin clearance was used for GFR quantification. Urinary cGMP and ANP excretion rate was calculated based on raw values obtained in the urine and UV.

neprilysin (NEP) = neprilysin (NEP) (Homo sapiens, UniProt P08473); test: In vitro degradation by neprilysin, MALDI-TOF time course; conditions: 37° C., MALDI-TOF
Description: (§1) Many peptide hormones are destined for endocrine circulation where they are rapidly degraded with half-lives reaching only a few minutes^6-8.
(§2) For enzymatic degradation assays using either NEP or DPP-IV (R&D systems, UK), an enzyme titration was carried out to ensure full degradation within one hour of reaction time.
(§3) MALDI-TOF-MS was performed on a Bruker Autoflex instrument (Bruker Daltonik GmbH, Bremen, Germany) by mixing the quenched aliquots with a saturated solution of α-Cyano-4-hydroxycinnamic acid in ACN/H2O/TFA (70:30:0.1) at a ratio 1:1 on a target steel plate and mass-spectra were acquired in linear mode.
Reactions were performed in 50 mM Tris, 0.05% Brij-35, pH 9 (Neprilysin), or 50 mM Tris, 20 mM NaCl, pH 7.5 (IDE) and incubated at 37° C.

[1] = molecular target: dipeptidyl peptidase IV (DPP-IV) (Homo sapiens, UniProt P27487); test: In vitro degradation by DPP-IV, MALDI-TOF time course
Description: as §1, §2, §3

[2] = molecular target: T1, insulin-degrading enzyme (IDE); test: In vitro degradation by insulin-degrading enzyme, MALDI-TOF time course; format: in vitro ADME
VIP/PACAP receptor VPAC1 = molecular target: T2, VIP/PACAP receptor VPAC1; test: cell-based or functional assay
VIP/PACAP receptor VPAC2 = molecular target: T3, VIP/PACAP receptor VPAC2; test: cell-based or functional assay

Chain of dipeptidyl peptidase IV (DPP-IV) (P27487 whole entry): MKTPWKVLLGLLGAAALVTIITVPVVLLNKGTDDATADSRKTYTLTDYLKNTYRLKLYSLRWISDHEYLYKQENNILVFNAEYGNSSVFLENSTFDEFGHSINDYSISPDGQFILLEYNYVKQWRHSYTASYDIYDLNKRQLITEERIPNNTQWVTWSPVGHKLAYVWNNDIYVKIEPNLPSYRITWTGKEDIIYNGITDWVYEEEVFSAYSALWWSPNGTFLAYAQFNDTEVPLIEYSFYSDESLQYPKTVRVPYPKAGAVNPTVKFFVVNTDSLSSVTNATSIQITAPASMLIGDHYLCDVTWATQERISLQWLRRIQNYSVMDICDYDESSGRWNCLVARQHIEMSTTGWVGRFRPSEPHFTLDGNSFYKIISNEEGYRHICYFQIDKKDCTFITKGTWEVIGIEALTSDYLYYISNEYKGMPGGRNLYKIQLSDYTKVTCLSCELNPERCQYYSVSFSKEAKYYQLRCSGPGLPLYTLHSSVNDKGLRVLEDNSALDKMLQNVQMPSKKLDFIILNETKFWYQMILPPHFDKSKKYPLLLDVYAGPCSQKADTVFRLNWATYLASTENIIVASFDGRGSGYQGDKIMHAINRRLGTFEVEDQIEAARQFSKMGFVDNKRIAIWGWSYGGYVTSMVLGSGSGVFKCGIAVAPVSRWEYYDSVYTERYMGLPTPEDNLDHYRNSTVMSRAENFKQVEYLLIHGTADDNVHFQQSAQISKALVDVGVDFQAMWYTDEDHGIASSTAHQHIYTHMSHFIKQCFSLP
Chain of neprilysin (NEP) (P08473 whole entry): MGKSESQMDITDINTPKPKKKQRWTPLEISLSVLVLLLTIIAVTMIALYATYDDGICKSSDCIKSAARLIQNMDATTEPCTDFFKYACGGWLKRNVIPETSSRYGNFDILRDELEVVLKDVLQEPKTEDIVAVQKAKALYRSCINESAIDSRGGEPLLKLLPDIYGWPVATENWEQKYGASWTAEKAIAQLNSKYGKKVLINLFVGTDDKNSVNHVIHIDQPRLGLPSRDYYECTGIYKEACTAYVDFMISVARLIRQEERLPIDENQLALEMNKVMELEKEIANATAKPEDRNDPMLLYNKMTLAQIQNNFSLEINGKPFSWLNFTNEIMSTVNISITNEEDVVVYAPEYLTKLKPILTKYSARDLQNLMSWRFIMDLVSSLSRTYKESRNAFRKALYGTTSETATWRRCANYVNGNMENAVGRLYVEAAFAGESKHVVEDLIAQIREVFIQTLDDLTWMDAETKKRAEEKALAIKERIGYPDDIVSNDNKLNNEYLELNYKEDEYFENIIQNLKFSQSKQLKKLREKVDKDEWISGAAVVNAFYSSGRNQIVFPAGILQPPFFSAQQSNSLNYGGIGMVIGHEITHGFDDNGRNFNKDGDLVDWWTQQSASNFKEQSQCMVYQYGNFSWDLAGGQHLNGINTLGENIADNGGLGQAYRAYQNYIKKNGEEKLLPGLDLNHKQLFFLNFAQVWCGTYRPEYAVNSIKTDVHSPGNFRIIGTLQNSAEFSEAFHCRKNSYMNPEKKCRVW

Row | Molecule | change in mean arterial pressure (MAP) over the infusion period (male Sprague Dawley rats) | change in plasma cGMP over the infusion period (male Sprague Dawley rats) | MAP in the 30 minutes clearance period (male Sprague Dawley rats) | remained (completely) intact after incubation with NEP (neprilysin (NEP)) [min] | remained fully intact after/until incubation with DPP-IV [1] [min] | potency, cAMP accumulation (HTRF) (VIP/PACAP receptor VPAC1) [nM] | potency, cAMP accumulation (HTRF) (VIP/PACAP receptor VPAC2) [nM] | further results
1 | CC[C@H](C)[C@@H]1NC(=O)[C@H](CCCNC(=N)N)NC(=O)[C@H](CC(=O)O)NC(=O)[C@H](CCSC)NC(=O)[C@H](CCCNC(=N)N)NC(=O)CNC(=O)CNC(=O)[C@H](Cc2ccccc2)NC(=O)[C@@H](NC(=O)[C@H](CO)NC(=O)[C@H](CO)NC(=O)[C@H](CCCNC(=N)N)NC(=O)[C@H](CCCNC(=N)N)NC(=O)[C@H](CC(C)C)NC(=O)[C@@H](N)CO)CSSC[C@@H](C(=O)N[C@@H](CC(N)=O)C(=O)N[C@@H](CO)C(=O)N[C@@H](Cc2ccccc2)C(=O)N[C@@H](CCCNC(=N)N)C(=O)N[C@@H](Cc2ccc(O)cc2)C(=O)O)NC(=O)CNC(=O)[C@H](CC(C)C)NC(=O)CNC(=O)[C@H](CO[C@H]2O[C@H](CO)[C@H](O)[C@H](O[C@@H]3O[C@H](CO)[C@H](O)[C@H](O[C@]4(C(=O)O)C[C@H](O)[C@@H](NC(C)=O)[C@H]([C@H](O)[C@H](O)CO)O4)[C@H]3O)[C@H]2NC(C)=O)NC(=O)[C@H](CCC(N)=O)NC(=O)[C@H](C)NC(=O)CNC1=O [ANP-Ser19/ST] | decrease | increase | sustained or further reduced | – | – | – | – | effect on diuresis and natriuresis (male Sprague Dawley rats; i.v. infusion): did not result in increased diuresis nor natriuresis
2 | CC[C@H](C)[C@H](NC(=O)[C@H](CO)NC(=O)[C@H](CC(N)=O)NC(=O)[C@H](CC(C)C)NC(=O)[C@H](Cc1ccc(O)cc1)NC(=O)[C@H](CCCCN)NC(=O)[C@H](CCCCN)NC(=O)[C@@H](NC(=O)[C@H](C)NC(=O)[C@H](CCSC)NC(=O)[C@H](CCC(N)=O)NC(=O)[C@H](CCCCN)NC(=O)[C@H](CCCNC(=N)N)NC(=O)[C@H](CC(C)C)NC(=O)[C@H](CCCNC(=N)N)NC(=O)[C@@H](NC(=O)[C@H](Cc1ccc(O)cc1)NC(=O)[C@H](CC(N)=O)NC(=O)[C@H](CC(=O)O)NC(=O)[C@@H](NC(=O)[C@H](Cc1ccccc1)NC(=O)[C@@H](NC(=O)[C@H](C)NC(=O)[C@H](CC(=O)O)NC(=O)[C@H](CO)NC(=O)[C@@H](N)Cc1c[nH]cn1)C(C)C)[C@@H](C)O[C@H]1O[C@H](CO)[C@H](O)[C@H](O[C@@H]2O[C@H](CO)[C@H](O)[C@H](O[C@]3(C(=O)O)C[C@H](O)[C@@H](NC(C)=O)[C@H]([C@H](O)[C@H](O)CO)O3)[C@H]2O)[C@H]1NC(C)=O)[C@@H](C)O)C(C)C)C(=O)N[C@@H](CC(C)C)C(=O)N[C@@H](CC(N)=O)C(N)=O [VIP-Thr7/ST] | – | – | – | 60 | 30 | – | – | partially intact after incubation with DPP-IV [1]: 60 min
3 | CC[C@H](C)[C@H](NC(=O)[C@H](Cc1ccccc1)NC(=O)[C@H](CCC(=O)O)NC(=O)[C@H](CCCCN)NC(=O)[C@H](C)NC(=O)[C@H](C)NC(=O)[C@H](CCC(N)=O)NC(=O)CNC(=O)[C@H](CCC(=O)O)NC(=O)[C@H](CC(C)C)NC(=O)[C@H](Cc1ccc(O)cc1)NC(=O)[C@H](CO)NC(=O)[C@H](CO)NC(=O)[C@@H](NC(=O)[C@H](CC(=O)O)NC(=O)[C@H](CO)NC(=O)[C@@H](NC(=O)[C@H](Cc1ccccc1)NC(=O)[C@@H](NC(=O)CNC(=O)[C@H](CCC(=O)O)NC(=O)[C@H](C)NC(=O)[C@@H](N)Cc1c[nH]cn1)[C@@H](C)O)[C@@H](C)O[C@H]1O[C@H](CO)[C@H](O)[C@H](O[C@@H]2O[C@H](CO)[C@H](O)[C@H](O[C@]3(C(=O)O)C[C@H](O)[C@@H](NC(C)=O)[C@H]([C@H](O)[C@H](O)CO)O3)[C@H]2O)[C@H]1NC(C)=O)C(C)C)C(=O)N[C@@H](C)C(=O)N[C@@H](Cc1c[nH]c2ccccc12)C(=O)N[C@@H](CC(C)C)C(=O)N[C@H](C(=O)N[C@@H](CCCCN)C(=O)NCC(=O)N[C@@H](CCCNC(=N)N)C(N)=O)C(C)C [GLP-1-Thr7/ST] | – | – | – | 60 | 120 | – | – | –
4 | CC[C@H](C)[C@@H]1NC(=O)[C@H](CCCNC(=N)N)NC(=O)[C@H](CC(=O)O)NC(=O)[C@H](CCSC)NC(=O)[C@H](CCCNC(=N)N)NC(=O)CNC(=O)CNC(=O)[C@H](Cc2ccccc2)NC(=O)[C@@H](NC(=O)[C@H](CO)NC(=O)[C@H](CO)NC(=O)[C@H](CCCNC(=N)N)NC(=O)[C@H](CCCNC(=N)N)NC(=O)[C@H](CC(C)C)NC(=O)[C@@H](N)CO)CSSC[C@@H](C(=O)N[C@@H](CC(N)=O)C(=O)N[C@@H](CO)C(=O)N[C@@H](Cc2ccccc2)C(=O)N[C@@H](CCCNC(=N)N)C(=O)N[C@@H](Cc2ccc(O)cc2)C(=O)O)NC(=O)CNC(=O)[C@H](CC(C)C)NC(=O)CNC(=O)[C@H](CO)NC(=O)[C@H](CCC(N)=O)NC(=O)[C@H](C)NC(=O)CNC1=O [ANP, Atrial natriuretic factor, reference compound] | decrease | increase | rebounded | – | – | – | – | time to complete degradation by insulin-degrading enzyme [2]: ≤ 15 min; UV after a clearance period of 30 minutes (male Sprague Dawley rats): normalized
5 | HSDAVFT([GalNAc-Gal-NeuAc])DNYTRLRKQMAVKKYLNSILN [VIP with ST O-glycan at Thr7] | – | – | – | – | – | 74 | 244 | –
6 | HSDAVFT(GalNAc)DNYTRLRKQMAVKKYLNSILN [VIP with one O-glycan (GalNAc/Tn) at residue 7] | – | – | – | – | – | 102 | 242 | –
